Results as given in US9388147B2 (Receptos, Inc., priority 2009, dated 2016).
Read-outs that look alike come from different tables or passages of the source.

How the values were obtained:
[1] = biological target: S1P1/EDG1 (Homo sapiens, UniProt P21453); experiment: S1P1 CRE-bla CHOK1 reporter assay, inhibition of Forskolin induced cAMP; format: cell-based
How it was run: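 Read-out is a FRET β-lactamase substrate (2 h, room temperature) after 4 h, 37 °C compound treatment under 2 μM Forskolin in stable S1P1-transfected CRE-bla CHO-K1 cells. Ten-point curves; non-linear regression gives EC50 for inhibition of Forskolin-stimulated cAMP.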

[2] = biological target: T1, S1P2 (Homo sapiens, UniProt O95136); experiment: Specificity over other S1P receptors: S1P2 CRE-bla CHOK1 reporter assay; format: cell-based; conditions: S1P2 CRE-bla CHOK1, without Forskolin; read-out: S1P2 agonist value (EC50)
T1 construct: expressed in transfected cells; host or cells: CRE-bla CHOK1
T1 sequence (O95136 whole entry, species assumed): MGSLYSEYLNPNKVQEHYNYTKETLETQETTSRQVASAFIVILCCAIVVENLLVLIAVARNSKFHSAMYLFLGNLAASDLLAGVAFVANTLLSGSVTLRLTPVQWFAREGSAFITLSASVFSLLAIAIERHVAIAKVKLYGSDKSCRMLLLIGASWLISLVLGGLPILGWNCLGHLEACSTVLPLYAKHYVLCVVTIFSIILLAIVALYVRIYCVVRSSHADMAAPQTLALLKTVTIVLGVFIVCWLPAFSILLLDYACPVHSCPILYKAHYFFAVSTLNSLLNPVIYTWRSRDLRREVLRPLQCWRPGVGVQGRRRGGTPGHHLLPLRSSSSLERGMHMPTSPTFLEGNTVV
Procedure: (§1) Cells were seeded into 384-well black wall/clear bottom plates at 10^4 cells/well/19.5 μl assay media (DMEM-phenol free, 0.5% charcoal/dextran stripped serum, 2 mM glutamine, 0.1 mM NEAA, 1 mM Na-Pyruvate, 25 mM Hepes) and incubated for 18 hrs at 37° C. in 5% CO2. Dose response curves (10-point) were generated in 10 mM Hepes, 0.1% Pluronic F127, in the presence of Forskolin. Cells were treated with 0.5 μl compound in the presence of 2 μM Forskolin for 4 hrs at 37° C. The FRET-based β-lactamase fluorescent substrate (LiveBLAzer™-FRET B/G Loading Kit CC4-AM; Invitrogen) was prepared according to manufacturer's directions, and incubated with cells for 2 hrs at room temperature. Plates were read at Ex:410/Em:458 and Ex:410/Em:522, and the response ratio determined. Data was analyzed by non-linear regression to determine the EC50 for inhibition of Forskolin induced cAMP.
(§2) To assess compound specificity on other S1P receptors the following cell lines were used: S1P2 CRE-bla CHOK1, S1P3-Gα15 NFAT-bla HEK293T (Invitrogen), S1P4-bla TANGO U2OS (Invitrogen), S1P5-bla TANGO U2OS (Invitrogen). The same assay set up for S1P1 was used but without Forskolin. S1P4 and S1P5 assays were performed in FreeStyle Expression medium (Invitrogen). S1P5 cells were incubated for 48 hrs in prior to treatment with compound.

[3] = biological target: T2, S1P3 (Homo sapiens, UniProt Q99500); experiment: Specificity over other S1P receptors: S1P3-Gα15 NFAT-bla HEK293T reporter assay; format: cell-based; conditions: without Forskolin, read-out: S1P3 agonist value (EC50)
T2 construct: host or cells: NFAT-bla HEK293T
T2 sequence (Q99500 whole entry): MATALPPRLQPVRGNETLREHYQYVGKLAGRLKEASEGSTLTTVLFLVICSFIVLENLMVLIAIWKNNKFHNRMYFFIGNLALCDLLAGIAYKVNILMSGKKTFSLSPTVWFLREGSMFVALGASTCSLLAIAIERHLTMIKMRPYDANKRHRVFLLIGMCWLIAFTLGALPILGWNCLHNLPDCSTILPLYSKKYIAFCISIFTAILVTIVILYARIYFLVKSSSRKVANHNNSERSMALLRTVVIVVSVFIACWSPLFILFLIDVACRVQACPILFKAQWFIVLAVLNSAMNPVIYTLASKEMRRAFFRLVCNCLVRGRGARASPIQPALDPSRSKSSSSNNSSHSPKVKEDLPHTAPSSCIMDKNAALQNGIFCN
Procedure: as §1, §2

[4] = biological target: T3, S1P4 (Homo sapiens, UniProt O95977); experiment: Specificity over other S1P receptors: S1P4-bla TANGO U2OS assay; format: cell-based; conditions: read-out: S1P4 agonist value (EC50)
T3 construct: Tango fusion (own knowledge: protease cleavage site plus GAL4-VP16 transcription factor at the receptor's C-terminus); host or cells: U2OS (Tango -bla)
T3 sequence (O95977 1-384): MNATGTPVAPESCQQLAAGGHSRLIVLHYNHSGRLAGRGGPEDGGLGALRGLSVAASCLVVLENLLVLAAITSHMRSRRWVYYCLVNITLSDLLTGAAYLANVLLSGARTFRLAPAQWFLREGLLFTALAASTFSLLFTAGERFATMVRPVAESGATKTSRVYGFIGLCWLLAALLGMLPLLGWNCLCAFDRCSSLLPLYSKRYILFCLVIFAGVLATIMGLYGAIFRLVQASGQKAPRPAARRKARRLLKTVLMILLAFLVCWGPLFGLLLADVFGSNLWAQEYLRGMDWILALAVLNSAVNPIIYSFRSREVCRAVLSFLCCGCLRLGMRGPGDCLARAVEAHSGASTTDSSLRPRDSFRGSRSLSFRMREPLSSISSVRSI
Procedure: as §1, §2

[5] = biological target: T4, S1P5 (Homo sapiens, UniProt Q9H228); experiment: Specificity over other S1P receptors: S1P5-bla TANGO U2OS assay; format: cell-based; conditions: read-out: S1P5 agonist value (EC50)
T4 construct: Tango fusion (own knowledge: protease cleavage site plus GAL4-VP16 transcription factor at the receptor's C-terminus); host or cells: U2OS (Tango -bla)
T4 sequence (Q9H228 whole entry, the tested form may be a part): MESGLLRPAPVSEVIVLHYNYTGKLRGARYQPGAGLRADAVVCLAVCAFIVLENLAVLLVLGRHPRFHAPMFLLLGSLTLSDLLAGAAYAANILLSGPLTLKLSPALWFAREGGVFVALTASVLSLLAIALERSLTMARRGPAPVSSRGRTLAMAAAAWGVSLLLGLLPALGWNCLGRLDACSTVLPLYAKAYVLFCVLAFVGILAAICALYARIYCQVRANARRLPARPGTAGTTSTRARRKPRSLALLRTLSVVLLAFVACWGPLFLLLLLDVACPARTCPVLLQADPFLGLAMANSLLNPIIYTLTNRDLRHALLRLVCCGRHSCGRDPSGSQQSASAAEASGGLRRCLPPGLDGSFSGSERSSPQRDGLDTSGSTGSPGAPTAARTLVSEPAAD
Procedure: as §1, §2

[6] = Evaluation of therapeutic index in rats: 5 or 14 day toxicology study, lung to body weight ratio; format: in vivo, Sprague-Dawley rat; conditions: for Dose Resulting in 10% increase in lung weight: rats, oral, 5 or 14 consecutive days, interpolated from dose versus lung to body weight; for TI 5 days: 5 day toxicology study in rats
Procedure: All studies were conducted in non-fasted male and female Sprague-Dawely rats (Simonsen Laboratories). Rats were housed in an AAALAC accredited facility and the research was approved by the facilities Institutional Animal Care and Use Committee (IACUC). The animals were acclimated to the laboratory for at least 5 days prior to initiation of experiments.
(§3) The compounds listed in Table 6 were formulated as suspensions in a vehicle consisting of 0.5% carboxymethyl cellulose (Acros Organics) in purified water (pH adjusted to ˜2.2 with hydrochloric acid). The same formulation was used in the rat lymphopenia and toxicology studies described below. The concentration of each compound in suspension was verified to be within ±10% of the target concentration by HPLC-UV.
In the toxicology studies, three male and three female rats per group were assigned to dosing groups using body weight based randomization. A control group in each study received vehicle. All animals were dosed orally by gavage on 5 or 14-consecutive days at a dose volume of 5 mL/kg/day. The animals were observed daily for any manifestations of adverse effect. Twenty-four hours after the final study dose, the rats were anesthetized with isoflurane and a terminal blood sample was taken by intra-cardiac puncture for hematology and clinical chemistry evaluation (IDEXX Laboratories, Sacramento, Calif.). The lungs with trachea were collected, weighed, and then prepared for histology by perfusion with 10% neutral buffered formalin via the trachea. The internally fixed lungs were then preserved in 10% neutral buffered formalin and submitted for histological examination (IDEXX).
The dose of each compound resulting in a 10% increase in the lung to terminal body weight ratio was estimated for each compound by linear interpolation. The therapeutic index was estimated as the ratio of the dose producing 10% lung weight increase to the dose producing 50% T-Cell depletion.
(§4) The dose producing a 10% increase in lung to body weight ratio was interpolated from a plot of dose versus lung to body weight. The lymphopenia response was measured 24 hours following the final dose of a 3-5 day multiple dose regimen.

[7] = tested on: peripheral T-cell counts; experiment: Lymphopenia in rats, 3-5 day multiple dose regimen; format: in vivo, rat; conditions: female rats, oral, 24 h after final dose of a 3-5 day multiple dose regimen
Procedure: In rats: Female rats (Simonsen Laboratories, Gilroy Calif.) were housed in an ALAAC accredited facility and the research was approved by the facilities Institutional Animal Care and Use Committee (IACUC). The animals were acclimated to the laboratory for at least 5 days prior to initiation of experiments. Rats (n=3/compound/time-point) were dosed by oral gavage with 1 mg/kg compound formulated in a vehicle consisting of 5% DMS0/5% Tween 20 and 90% 0.1N HCL. Control rats were dosed PO with the vehicle. Whole blood was collected from isoflurane anesthetized rats via the retro-orbital sinus and terminal samples were collected by cardiac puncture into EDTA. Whole blood was incubated with mouse anti-rat CD32 (BD #550271), PE-mouse anti-rat CD45R/B220 (BD #554881), PECy5-mouse anti-rat CD4 (BD #554839), and APC-mouse anti-rat CD8a (eBioscience #17-0084) for 30 minutes on ice. Red blood cells were lysed using BD Pharm Lyse Lysing buffer (#555899) and white blood cells were analyzed with a BD FACSArray. Lymphopenia was expressed as the % of white blood cells that were CD4 or CD8 positive T cells. The overall lymphopenia response over 24 h was estimated by calculating the area under the effect curve (AUEC) using the linear trapezoidal rule.
as §3
Prior to the conduct of toxicology studies, the effect of three to five daily doses of each compound on peripheral T-cell counts of female rats was determined (see lymphopenia measurements in rats above). In these lymphopenia studies, blood samples were collected onto EDTA at intervals after the final study dose. The collection times were not identical for each study, however, all studies included a sample collected 24 hours after the final dose. The lymphopenia data was used as a biomarker to select equally pharmacologically active doses for the subsequent toxicology study. […] The high dose in the toxicology study represented a ≧20-fold increment over the low dose.
as §4

[8] = S1P1 CRE-bla CHOK1, with Forskolin, read-out: S1P1 agonist value (EC50)
[9] = agonist activity range, S1P1 CRE-bla CHOK1, 2 μM Forskolin, read-out: S1P1 ACTIVITY
[10] = therapeutic index: dose producing 10% lung weight increase / dose producing 50% T-cell depletion

S1P1/EDG1, sequence (P21453 whole entry): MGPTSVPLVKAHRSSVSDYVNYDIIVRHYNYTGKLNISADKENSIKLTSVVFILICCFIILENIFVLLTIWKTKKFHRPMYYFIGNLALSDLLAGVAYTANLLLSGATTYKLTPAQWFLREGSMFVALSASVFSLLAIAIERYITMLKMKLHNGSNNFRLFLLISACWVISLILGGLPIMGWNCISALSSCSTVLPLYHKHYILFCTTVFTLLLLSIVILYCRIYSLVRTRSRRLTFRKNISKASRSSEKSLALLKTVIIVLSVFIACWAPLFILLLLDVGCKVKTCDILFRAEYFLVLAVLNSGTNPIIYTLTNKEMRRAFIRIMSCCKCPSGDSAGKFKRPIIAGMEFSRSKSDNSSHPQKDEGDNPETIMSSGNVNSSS

Row | SMILES | EC50 [1, 8] [nM] | EC50 [1, 9] [nM] | EC50 [2] [nM] | EC50 [3] [nM] | EC50 [4] [nM] | EC50 [5] [nM] | Dose Resulting in 10% increase in lung weight [6] [mg/kg] | TI 14 days ([6]; therapeutic index: dose producing 10% lung weight increase / dose producing 50% T-cell depletion, 14 day toxicology study in rats) | Dose Producing 50% lymphopenia [7] [mg/kg] | TI 5 days [6, 10]
1 | CCOc1ccc(-c2nc(-c3cccc4c3CCC4NCCO)no2)cc1OCC (racemic) [Compound 253, (+/−)-2-((4-(5-(3,4,diethoxyphenyl)-1,2,4-oxadiazol-3-yl)-2,3-dihydro-1H-inden-1-yl)amino)ethanol, reference compound] | 2.88 | 0.5 to 5 | > 1000 | 4300 | 3250 | 136 |  |  |  | 
2 | COCCS(=O)(=O)N[C@@H]1CCc2c(-c3noc(-c4ccc(OC(C)C)c(C#N)c4)n3)cccc21 [Compound 163, (R)-N-(4-(5-(3 cyano-4-isopropoxyphenyl)-1,2,4-oxadiazol-3-yl)-2,3-dihydro-1H-inden-1-yl)-2-methoxyethanesulfonamide] | 0.09 | 0.05 to 0.5 | > 10000 | > 10000 | > 10000 | 50 | 2.1 | 30 | 0.07 | 
3 | COCCS(=O)(=O)N[C@H]1CCc2c(-c3noc(-c4ccc(OC(C)C)c(C#N)c4)n3)cccc21 [Compound 164, (S)-N-(4-(5-(3-cyano-4-isopropoxyphenyl)-1,2,4-oxadiazol-3-yl)-2,3-dihydro-1H-inden-1-yl)-2-methoxyethanesulfonamide] | 0.36 | 0.05 to 0.5 | > 10000 | > 10000 | > 10000 | 174 | 5.0 |  | 0.25 | 20
4 | CC(C)Oc1ccc(-c2nc(-c3cccc4c3CC[C@H]4NS(=O)(=O)CCO)no2)cc1C#N [Compound 186, (R)-N-(4-(5-(3 cyano-4-isopropoxyphenyl)-1,2,4-oxadiazol-3-yl)-2,3-dihydro-1H-inden-1-yl)-2-hydroxyethanesulfonamide] | 0.05 | 0.05 to 0.5 | 1570 | > 10000 | 1210 | 32.3 | 1.1 |  | 0.07 | 16
5 | CC(C)Oc1ccc(-c2nc(-c3cccc4c3CC[C@@H]4NS(=O)(=O)CCO)no2)cc1C#N [Compound 187, (S)-N-(4-(5-(3-cyano-4-isopropoxyphenyl)-1,2,4-oxadiazol-3-yl)-2,3-dihydro-1H-inden-1-yl)-2-hydroxyethanesulfonamide] | 0.1 | 0.05 to 0.5 | > 10000 | > 10000 | > 10000 | 57.1 | 5.0 |  | 0.50 | 10
6 | CC(C)Oc1ccc(-c2nc(-c3cccc4c3CC[C@H]4NC(=O)N3CC(O)C3)no2)cc1C#N [Compound 234, (R)-N-(4-(5-(3 cyano-4-isopropoxyphenyl)-1,2,4-oxadiazol-3-yl)-2,3-dihydro-1H-inden-1-yl)-3-hydroxyazetidine-1-carboxamide] | 0.1 | 0.05 to 0.5 | > 10000 | > 10000 | 739 | 76.1 | 21.3 |  | 0.90 | 24
7 | CC(C)Oc1ccc(-c2nc(-c3cccc4c3CC[C@@H]4NC(=O)N3CC[C@@H](N(C)C)C3)no2)cc1C#N [Compound 244] |  | 0.5 to 5 |  |  |  |  |  |  |  | 
8 | CC(C)Oc1ccc(-c2nc(-c3cccc4c3CC[C@@H]4NC(=O)N3CC[C@H](N(C)C)C3)no2)cc1C#N [Compound 245] |  | 0.5 to 5 |  |  |  |  |  |  |  | 
9 | CC(C)Oc1ccc(-c2nc(-c3cccc4c3CC[C@H]4NC(=O)N3CCC(N(C)C)CC3)no2)cc1C#N [Compound 246] |  | > 5 |  |  |  |  |  |  |  | 
10 | CC(C)Oc1ccc(-c2nc(-c3cccc4c3CC[C@@H]4NC(=O)N3CCC(N(C)C)CC3)no2)cc1C#N [Compound 247] |  | 0.5 to 5 |  |  |  |  |  |  |  | 
11 | CC(C)Oc1ccc(-c2nc(-c3cccc4c3CC[C@H]4NS(N)(=O)=O)no2)cc1C#N [Compound 248, (R)-N-(4-(5-(3 cyano-4-isopropoxyphenyl)-1,2,4-oxadiazol-3-yl)-2,3-dihydro-1H-inden-1-yl)sulfamide] |  | < 0.05 |  |  |  |  |  |  |  | 
12 | CC(C)Oc1ccc(-c2nc(-c3cccc4c3CC[C@@H]4NS(N)(=O)=O)no2)cc1C#N [Compound 249] |  | < 0.05 |  |  |  |  |  |  |  | 
13 | CC(C)Oc1ccc(-c2nc(-c3cccc4c3CC[C@@H]4NC(=N)N)no2)cc1C#N [Compound 250] |  | 0.05 to 0.5 |  |  |  |  |  |  |  | 
14 | CC(C)Oc1ccc(-c2nc(-c3cccc4c3CC[C@H]4N[C@H](C)c3ccccc3)no2)cc1C#N [Compound 251] |  | > 5 |  |  |  |  |  |  |  | 
15 | CC(C)Oc1ccc(-c2nc(-c3cccc4c3CC[C@H]4N)no2)cc1S(C)(=O)=O [Compound 252] |  | 0.5 to 5 |  |  |  |  |  |  |  | 
